The source of these data is US20040209929A1, “Fused heteroaryl carboxylic acids as PPAR agonists” (Agouron Pharmaceuticals, Inc., priority 2003, published 2004).

The target of the experiment is T1, PPAR-γ (Homo sapiens, UniProt P37231).
T1 sequence (P37231 1-505): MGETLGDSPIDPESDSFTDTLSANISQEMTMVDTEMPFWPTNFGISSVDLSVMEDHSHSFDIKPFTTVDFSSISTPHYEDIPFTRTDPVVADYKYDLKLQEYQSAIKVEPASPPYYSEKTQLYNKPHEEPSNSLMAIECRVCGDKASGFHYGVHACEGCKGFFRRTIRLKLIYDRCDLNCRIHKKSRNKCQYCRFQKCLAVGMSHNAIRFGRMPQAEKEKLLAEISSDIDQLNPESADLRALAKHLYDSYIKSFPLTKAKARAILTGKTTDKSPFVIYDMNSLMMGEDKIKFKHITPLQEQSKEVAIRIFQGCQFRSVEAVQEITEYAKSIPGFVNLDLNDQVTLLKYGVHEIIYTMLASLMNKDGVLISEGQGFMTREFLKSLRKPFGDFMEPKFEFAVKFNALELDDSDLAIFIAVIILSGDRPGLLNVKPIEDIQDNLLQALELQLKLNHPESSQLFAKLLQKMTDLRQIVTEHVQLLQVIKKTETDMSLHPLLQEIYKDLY
Kind of experiment: Scintillation Proximity Assay (SPA), displacement of 3H labeled darglitazone from PPAR-γ. It counts as binding. Particulars: PPAR protein on polylysine beads, read-out: PPAR-γKi. An excerpt:
Scintillatian Proximity Assay (SPA) Assays
In the SPA assay, 3H labeled darglitazone (for PPAR-γ) or GW^2331 (for PPAR-α) in bound to the PPAR protein captured on SPA polylysine beads and generates radioactive count signal that can be detected by TopCounts (Packard). The PPAR-bound 3H labeled ligand can be displaced by an unlabeled compound. The Ki of the compound can be then determined by the extent of displacement at various compound concentrations.
SPA polylysine beads, which can be purchased from Amersham Bioscience.
3H labeled Darglitazone for PPAR-γ.
Buffer—PBS, 10% glycerol, 14 mM beta-mercaptoethanol.
In the case of `Cc1oc(-c2ccccc2)nc1CCOc1ccnc2c(CCC(=O)O)cccc12` [Example 53], the Ki came to 8.5 µM.

In the case of `Cc1oc(-c2ccccc2)nc1COc1ccc2cnn(CC(=O)O)c2c1` [Example 4, {6-[(5-methyl-2-phenyl-1,3-oxazol-4-yl)methoxy]-1H-indazol-1-yl}acetic acid], the Ki was over 50 µM.

On to `Cc1oc(-c2ccccc2)nc1CCOc1ccc2cnn(CC(=O)O)c2c1` [Example 20, {6-[2-(5-methyl-2-phenyl-1,3-oxazol-4-yl)ethoxy]-1H-indazol-1-yl}acetic acid], for which the Ki is over 50 µM.

Consider `Cc1oc(-c2ccccc2)nc1COc1cccc2c1cnn2CCCC(=O)O` [Example 15, 4-{4-[(5-methyl-2-phenyl-1,3-oxazol-4-yl)methoxy]-1H-indazol-1-yl}butanoic acid], for which the Ki came out at 10 µM.

`Cc1oc(-c2ccccc2)nc1CCOc1ccnc2c1ccn2CCC(=O)O` [Example 45]: the Ki turned out to be 9 µM.

For `O=C(O)Cn1ncc2c(OCc3nc(-c4ccccc4)oc3-c3ccccc3)cccc21` [Example 12, {4-[(2,5-diphenyl-1,3-oxazol-4-yl)methoxy]-1H-indazol-1-yl)acetic acid], the Ki stood at 4 µM.

`Cc1oc(-c2ccccc2)nc1CCn1ccc2c(OCC(=O)O)ccnc21` [Example 47]: the Ki was over 50 µM.

Regarding `Cc1oc(-c2ccccc2)nc1CCOc1cccc2c1cnn2CCC(=O)O` [Example 1, 3-{4-[2-(5-methyl-2-phenyl-1,3-oxazol-4-yl)ethoxy]-1H-indazol-1-yl}propanoic acid], the Ki is 0.58 µM.

With `O=C(O)Cn1ncc2ccc(OCc3nc(-c4ccccc4)oc3-c3ccccc3)cc21` [Example 7, {6-[(2,5-diphenyl-1,3-oxazol-4-yl)methoxy]-1H-indazol-1-yl}acetic acid], the Ki is 6.9 µM.

In the case of `Cc1oc(-c2ccccc2)nc1CCCn1ncc2c(OC(C)(C)C(=O)O)cccc21` [Example 33, 2-methyl-2-({1-[3-(5-methyl-2-phenyl-1,3-oxazol-4-yl)propyl]-1H-indazol-4-yl}oxy)propanoic acid], the Ki turned out to be 7 µM.

For `Cc1oc(-c2ccccc2)nc1CCCOc1cccc2c1cnn2CCCC(=O)O` [Example 23, 4-{4-[3-(5-methyl-2-phenyl-1,3-oxazol-4-yl)propoxy]-1H-indazol-1-yl}butanoic acid], the Ki is over 50 µM.

Take `Cc1oc(-c2ccccc2)nc1CCOc1ccc2cnn(CCC(=O)O)c2c1` [Example 21, 3-{6-[2-(5-methyl-2-phenyl-1,3-oxazol-4-yl)ethoxy]-1H-indazol-1-yl}propanoic acid]: the Ki is over 50 µM.

In the case of `Cc1oc(-c2ccccc2)nc1COc1ccc2cnn(CCC(=O)O)c2c1` [Example 13, 3-{6-[(5-methyl-2-phenyl-1,3-oxazol-4-yl)methoxy]-1H-indazol-1-yl}propanoic acid], the Ki was 41 µM.

On to `Cc1oc(-c2ccccc2)nc1CCOc1cccc2c1c(C(=O)C(F)(F)F)cn2CCC(=O)O` [Example 44], for which the Ki turned out to be 19 µM.

In the case of `Cc1oc(-c2ccccc2)nc1CCNc1ccnc2c1ccn2CCC(=O)O` [Example 46], the Ki turned out to be 0.58 µM.

On to `Cc1oc(-c2ccccc2)nc1COc1ccc2cnn(CCCC(=O)O)c2c1` [Example 3, 4-{6-[(5-methyl-2-phenyl-1,3-oxazol-4-yl)methoxy]-1H-indazol-1-yl}butanoic acid], for which the Ki is over 100 µM.

Turning to `Cc1oc(-c2ccccc2)nc1CCOc1cccc2c1ccn2CC(=O)O` [Example 48], the Ki was determined as 30 µM.

`Cc1oc(-c2ccccc2)nc1CCOc1cccc2c1cnn2CCCC(=O)O` [Example 18]: the Ki is over 50 µM.

For the compound `Cc1oc(-c2ccccc2)nc1COc1cccc2c1ccn2CCCC(=O)O` [Example 55], the Ki was over 100 µM.

Regarding `O=C(O)CCn1ncc2ccc(OCc3nc(-c4ccccc4)oc3-c3ccccc3)cc21` [Example 6, 3-{6-[(2,5-diphenyl-1,3-oxazol-4-yl)methoxy]-1H-indazol-1-yl}propanoic acid], the Ki stood at 1.8 µM.

In the case of `Cc1oc(-c2ccccc2)nc1CCOc1ccc2cnn(CCCC(=O)O)c2c1` [Example 22, 4-{6-[2-(5-methyl-2-phenyl-1,3-oxazol-4-yl)ethoxy]-1H-indazol-1-yl}butanoic acid], the Ki was over 50 µM.

For the compound `Cc1oc(-c2ccccc2)nc1COc1cccc2c1cnn2CCC(=O)O` [Example 17, 3-{4-[(5-methyl-2-phenyl-1,3-oxazol-4-yl)methoxy]-1H-indazol-1-yl}propanoic acid], the Ki was 4 µM.

Consider `Cc1oc(-c2ccccc2)nc1CCOc1cccc2c1ccn2CC(CCC(=O)O)C(=O)O` (stereo not shown) [Example 51], for which the Ki was over 100 µM.

Consider `O=C(O)CCCn1ncc2c(OCc3nc(-c4ccccc4)oc3-c3ccccc3)cccc21` [Example 11, 4-{4-[(2,5-diphenyl-1,3-oxazol-4-yl)methoxy]-1H-indazol-1-yl}butanoic acid], for which the Ki was over 100 µM.

Take `Cc1oc(-c2ccccc2)nc1CCCOc1cccc2c1cnn2CCC(=O)O` [Example 27, 3-{4-[3-(5-methyl-2-phenyl-1,3-oxazol-4-yl)propoxy]-1H-indazol-1-yl}propanoic acid]: the Ki is over 50 µM.

For the compound `O=C(O)CCn1ncc2c(OCc3nc(-c4ccccc4)oc3-c3ccccc3)cccc21` [Example 14, 3-{4-[(2,5-diphenyl-1,3-oxazol-4-yl)methoxy]-1H-indazol-1-yl}propanoic acid], the Ki amounted to 3.7 µM.

In the case of `Cc1oc(-c2ccccc2)nc1CCOc1cccc2c1c(Cl)cn2CCC(=O)O` [Example 50], the Ki amounted to 4.9 µM.

For `Cc1oc(-c2ccccc2)nc1CCCOc1cccc2c1cnn2CC(=O)O` [Example 25, {4-[3-(5-methyl-2-phenyl-1,3-oxazol-4-yl)propoxy]-1H-indazol-1-yl}acetic acid], the Ki is over 50 µM.

`Cc1oc(-c2ccccc2)nc1COc1cccc2c1cnn2CC(=O)O` [Example 16, {4-[(5-methyl-2-phenyl-1,3-oxazol-4-yl)methoxy]-1H-indazol-1-yl}acetic acid]: the Ki was over 100 µM.

For `Cc1oc(-c2ccccc2)nc1CCOc1cccc2c1cnn2CC(=O)O` [Example 49], the Ki is over 50 µM.

`Cc1oc(-c2ccccc2)nc1CCOc1ccnc2c1ccn2CC(=O)O` [Example 29, {4-[2-(5-methyl-2-phenyl-1,3-oxazol-4-yl)ethoxy]-1H-pyrrolo[2,3-b]pyridin-1-yl}acetic acid]: the Ki was over 50 µM.

On to `Cc1oc(-c2ccccc2)nc1CCOc1cccc2c1ccn2CCCC(=O)O` [Example 54], for which the Ki worked out at 16 µM.

On to `O=C(O)CCCn1ncc2ccc(OCc3nc(-c4ccccc4)oc3-c3ccccc3)cc21` [Example 10, 4-{6-[(2,5-diphenyl-1,3-oxazol-4-yl)methoxy]-1H-indazol-1-yl}butanoic acid], for which the Ki is over 100 µM.

Regarding `Cc1oc(-c2ccccc2)nc1CCOc1cccc2c1ncn2CCC(=O)O` [Example 34, 3-{4-[2-(5-methyl-2-phenyl-1,3-oxazol-4-yl)ethoxy]-1H-benzimidazol-1-yl}propanoic acid], the Ki is over 50 µM.
